Data reported in ChEMBL document CHEMBL1137576, “Interactions of hepatitis B core antigen and peptide inhibitors” (J Med Chem, 2007).
pKd: −log10 of the molar value. Where a SMILES comes first, the peptide text is derived from it.

Assays:
[1] = target: Core antigen (Hepatitis B virus, UniProt Q03732); assay: (§1) Binding affinity to HBcAg
[2] = target: Core antigen (Hepatitis B virus) (UniProt Q03732); assay: as §1
Sequence of Core antigen (Hepatitis B virus) (Q03732 as listed by the source): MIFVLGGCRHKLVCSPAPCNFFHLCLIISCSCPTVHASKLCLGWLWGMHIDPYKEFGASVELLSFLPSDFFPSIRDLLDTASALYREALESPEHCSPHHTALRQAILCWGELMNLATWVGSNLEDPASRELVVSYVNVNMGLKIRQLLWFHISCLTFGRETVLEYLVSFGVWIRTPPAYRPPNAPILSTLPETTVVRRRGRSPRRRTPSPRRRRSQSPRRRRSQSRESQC

Sequence of Core antigen (Q03732 whole entry): as the sequence (Q03732 as listed by the source) above

Row | SMILES | pKd [1] | Ka [2]
1 | CSCC[C@H](NC(=O)[C@H](CCCNC(=N)N)NC(=O)CNC(=O)[C@H](CC(C)C)NC(=O)[C@H](CC(C)C)NC(=O)[C@H](CO)NC(=O)[C@H](CCCNC(=N)N)NC(=O)[C@H](Cc1cnc[nH]1)NC(=O)[C@@H](N)CCSC)C(=O)N[C@@H](CCCCN)C(=O)NCC(=O)N[C@@H](C)C(=O)O | 4.10 | 1.26 10^4/M
2 | CC[C@H](C)[C@H](NC(=O)[C@H](CC(N)=O)NC(=O)[C@H](CO)NC(=O)[C@H](Cc1ccccc1)NC(=O)[C@H](Cc1ccccc1)NC(=O)[C@H](CO)NC(=O)[C@@H](N)Cc1c[nH]c2ccccc12)C(=O)O (H-WSFFSNI-OH) | 4.73 | 5.4 10^4/M
